The text below walks through data of publication PMC7531004, “Discovery of gramicidin A analogues with altered activities by multidimensional screening of a one-bead-one-compound library” (Nature Communications, 2020).

Where a SMILES comes first, the peptide text is derived from it. [ ]: non-standard residue; d: D form. The star is where a group is joined. NHCH2CH2OH = OCCN*; For = O=C*

The nature of data set [1]: H+/Na+ transport assay of bead-derived peptides (one-point).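 Also: relative to parent gramicidin A activity set to 1.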 The data set is classed as biochemical. On the set-up: key: relative activity; mean of two control wells = 1.00. The settings on record: bead-derived peptide solution, EYPC/EYPG LUVs. The method, boiled down: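 One-point screen: peptide + pyranine-loaded LUVs, 30 min RT with vortexing, 96-well. Read-out is fluorescence intensity scaled as 100 × (Ix – I0)/(Imax – I0). Imax from Triton X-100, I0 from untreated vesicles, and the mean of the two control wells is set to 1.00.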

The conditions of data set [2]: cell viability/%. The method, boiled down:
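Peptide stocks diluted 250× in growth medium; P388 cells 1 × 10^4 cells/mL final; 37 °C, 5% CO2, 92 h. WST-1 + 1-methoxy PMS, 4 h, A415. Output: % viability.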

In data set [3] the test system is Streptococcus pyogenes SSI-9. As to the kind of experiment: Antibacterial activity assay of bead-derived peptides (three concentrations). It counts as cell-based. On the set-up: key: +++: inhibition by the 640-fold diluted peptide solution; ++: inhibition by the 160-fold diluted solution; +: inhibition by the 40-fold diluted solution; -: no inhibition. The conditions noted are these: S. pyogenes, bead-derived peptide solution, three concentrations. The method, boiled down:
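First, each peptide stock was diluted 4- and 16-fold in DMSO; next, the three solutions were mixed with S. pyogenes SSI-9 suspension (2 × 10^5 CFU) in cation-adjusted Mueller Hinton Broth plus 5% laked horse blood; finally, plates stood 18 h at 37 °C before checking for grown-cell precipitation.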

For the compound `CNC(=O)C[C@@H](NC(=O)[C@H](Cc1c[nH]c2ccccc12)NC(=O)[C@H](NC(=O)[C@H](Cc1c[nH]c2ccccc12)NC(=O)[C@H](NC(=O)[C@H](Cc1c[nH]c2ccccc12)NC(=O)[C@H](NC(=O)[C@@H](NC(=O)[C@H](NC(=O)[C@H](C)NC(=O)[C@@H](CC(C)C)NC(=O)[C@H](C)NC(=O)CNC(=O)[C@@H](NC=O)C(C)C)C(C)C)C(C)C)C(C)C)C(C)C)C(C)C)C(=O)N[C@@H](Cc1c[nH]c2ccccc12)C(=O)NCCO` [compound 362] (For-VGA[dL]A[dV]V[dV]W[dV]W[dV]W[dD](NHMe)W-NHCH2CH2OH), in data set [1], the “H+/Na+ transport activity normalized against the value of 1 (1.00)” value (“H+/Na+ transport activity normalized” for short) was 1.05. The viability – broadly, the share of living cells, or the viability signal relative to a control – in data set [2] is 100%. The antibacterial activity result in data set [3] is “-”.
Turning to `CC(C)C[C@@H](NC(=O)[C@H](C)NC(=O)CNC(=O)[C@@H](NC=O)C(C)C)C(=O)N[C@@H](C)C(=O)N[C@@H](C(=O)N[C@H](C(=O)N[C@H](CC(C)C)C(=O)N[C@@H](Cc1c[nH]c2ccccc12)C(=O)N[C@H](CC(C)C)C(=O)N[C@@H](Cc1c[nH]c2ccccc12)C(=O)N[C@@H](C(=O)N[C@@H](Cc1c[nH]c2ccccc12)C(=O)N[C@@H](C(=O)N[C@@H](Cc1c[nH]c2ccccc12)C(=O)NCCO)C(C)C)[C@H](C)O)C(C)C)[C@H](C)O` [compound 381] (For-VGA[dL]A[dT]V[dL]W[dL]W[dT]W[dV]W-NHCH2CH2OH), the “H+/Na+ transport activity normalized” value in data set [1] stood at 1.03. In addition, the viability in data set [2] turned out to be 100%. Besides, the antibacterial activity entry in data set [3] is reported as “-”.
On to `CC(C)C[C@@H](NC(=O)[C@H](C)NC(=O)[C@H](NC(=O)[C@H](C)NC(=O)CNC(=O)[C@@H](NC=O)C(C)C)C(C)C)C(=O)N[C@H](C(=O)N[C@@H](C(=O)N[C@@H](Cc1c[nH]c2ccccc12)C(=O)N[C@@H](C(=O)N[C@@H](Cc1c[nH]c2ccccc12)C(=O)N[C@@H](C(=O)N[C@@H](Cc1c[nH]c2ccccc12)C(=O)N[C@H](CC(C)C)C(=O)N[C@@H](Cc1c[nH]c2ccccc12)C(=O)NCCO)C(C)C)C(C)C)C(C)C)C(C)C` [compound 437] (For-VGA[dV]A[dL]V[dV]W[dV]W[dV]W[dL]W-NHCH2CH2OH), for which, in data set [1], the “H+/Na+ transport activity normalized” value is 1.11. In data set [2], the viability was 100%. Besides, the antibacterial activity result in data set [3] is “+”.
For `CC(C)C[C@@H](NC(=O)[C@H](Cc1c[nH]c2ccccc12)NC(=O)[C@@H](CC(C)C)NC(=O)[C@@H](NC(=O)[C@H](NC(=O)[C@H](C)NC(=O)[C@H](NC(=O)[C@H](C)NC(=O)CNC(=O)[C@@H](NC=O)C(C)C)C(C)C)C(C)C)C(C)C)C(=O)N[C@@H](Cc1c[nH]c2ccccc12)C(=O)N[C@H](CC(C)C)C(=O)N[C@@H](Cc1c[nH]c2ccccc12)C(=O)N[C@@H](C(=O)N[C@@H](Cc1c[nH]c2ccccc12)C(=O)NCCO)C(C)C` [compound 511] (For-VGA[dV]A[dV]V[dL]W[dL]W[dL]W[dV]W-NHCH2CH2OH), in data set [1], the “H+/Na+ transport activity normalized” value turned out to be 1.01. For the same compound, the viability in data set [2] was found to be 1.8%. The antibacterial activity entry in data set [3] is given as “++”.
Turning to `CC(C)C[C@@H](NC(=O)[C@H](Cc1c[nH]c2ccccc12)NC(=O)[C@H](NC(=O)[C@H](Cc1c[nH]c2ccccc12)NC(=O)[C@@H](CC(C)C)NC(=O)[C@H](Cc1c[nH]c2ccccc12)NC(=O)[C@H](NC(=O)[C@@H](NC(=O)[C@H](NC(=O)[C@H](C)NC(=O)[C@H](NC(=O)[C@H](C)NC(=O)CNC(=O)[C@@H](NC=O)C(C)C)C(C)C)C(C)C)C(C)C)C(C)C)[C@H](C)O)C(=O)N[C@@H](Cc1c[nH]c2ccccc12)C(=O)NCCO` [compound 521] (For-VGA[dV]A[dV]V[dV]W[dL]W[dT]W[dL]W-NHCH2CH2OH), the “H+/Na+ transport activity normalized” value in data set [1] stood at 1.05. The compound also had a viability in data set [2] of 100%. Also, the antibacterial activity entry in data set [3] is listed as “+”.
